Source: US5597899A, “Tumor necrosis factor muteins” (Hoffmann-La Roche Inc., priority 1993, dated 1997)

Key:
human TNFR-p55 = test: Solid phase radioligand competition binding assay, E. coli lysates, TNFR-p55; details: for Dilution of E. coli Lysate for 50% Inhibition of 125I-TNFα Binding (ID50) TNFR-p55: 10-fold serial dilutions 10^-2 to 10^-7, < = inhibition but below 50% at 1:100, << = no measurable inhibition at 1:100; for ID50 TNFR-p55 / ID50 TNFR-p75: ratio = 1 no receptor selectivity, > 1 TNFR-p55 selectivity, < 1 TNFR-p75 selectivity
Method: (§1) After 20 min incubation at room temperature 50 μl of 1M MgCl2, 20 μl of 5 mg/ml DNaseI, 50 μl of 5M NaCl and 50 μl of 10% NP-40 were added and the mixture was further incubated at room temperature for 15 min. 0.5 ml of the lysate clarified by centrifugation at 13'000 rpm for 5 min was subjected to ammonium sulfate precipitation (25%-70% cut). The 70% ammonium sulfat pellet was dissolved in 0.2 ml PBS and analyzed by sodium dodecyl sulfate polyacrylamide gel electrophoresis (SDS-PAGE) to confirm presence and approximate amount of the recombinant proteins.
TNFα was labelled by the Iodogen method (Pierce Chemical Company) to a specific activity of about 10-30 μCi/μg. The volume was 100 μl/well and each lysate dilution was assayed in duplicate or triplicate. After three hours at room temperature the wells were thoroughly washed with PBS and counted in a γ-counter. The results are given in Table 2 for lysates comprising the muteins indicated therein.

human TNFR-p75 = test: Solid phase radioligand competition binding assay, E. coli lysates, TNFR-p75; details: 10-fold serial dilutions 10^-2 to 10^-7, < = inhibition but below 50% at 1:100, << = no measurable inhibition at 1:100
Method: as §1, with “10 ml suspensions of E. coli cells transformed and induced as described in Examples I and II were centrifuged at 4'000 rpm for 10 min and resuspended in 0.9 ml of lysis buffer (10 mM Tris-HCl pH 8.0, 5 mM EDTA, 2 mM PMSF, 10 mM benzamidine, 200 units/ml aprotinine and 0.1 mg/ml lysozyme). After” for “After”
96 well microtiter plates were coated with recombinant human […] TNFR-p75-hγ3 and TNFR-p55-hγ3 fusion proteins (extracellular portion of the receptor fused to the Fc part of human IgG3) at a concentration of 0.3 μg/ml and 0.1 μg/ml, respectively, in phosphate buffered saline (PBS, 100 μl/well, overnight at 4° C.) [Loetscher, H. et al. J. Biol. Chem. 266, 18324-18329 (1991); Lesslauer, W. et al. Eur. J. Immunol. 21, 2883-2886 (1991)]. After blocking with blocking buffer (50 mM Tris pH 7.4, 140 mM NaCl, 5 mM EDTA, 0.02% NAN3, 1% defatted milk powder) the microtiter plate was washed with PBS and incubated in blocking buffer containing 0.1% defatted milk powder with 10 ng/ml human wild-type ^125 I-TNFα and various dilutions of E. coli lysates ranging from 10^-2 to 10^-7 (10-fold serial dilutions). TNFα was labelled by the Iodogen method (Pierce Chemical Company) to a specific activity of about 10-30 μCi/μg. The volume was 100 μl/well and each lysate dilution was assayed in duplicate or triplicate. After three hours at room temperature the wells were thoroughly washed with PBS and counted in a γ-counter. The results are given in Table 2 for lysates comprising the muteins indicated therein.

| Substance | Dilution of E. coli Lysate for 50% Inhibition of 125I-TNFα Binding (ID50) TNFR-p55 (human TNFR-p55) | ID50 TNFR-p55 / ID50 TNFR-p75 (human TNFR-p55) | Dilution of E. coli Lysate for 50% Inhibition of 125I-TNFα Binding (ID50) TNFR-p75 (human TNFR-p75) |
| --- | --- | --- | --- |
| A33D: human TNFα mutein A33D | < 100 fold | > 1 | < 100 fold |
| A33T: human TNFα mutein A33T | 1,110 fold | 0.9 | 1,250 fold |
| A145D: human TNFα mutein A145D | 5,000 fold | 0.7 | 6,670 fold |
| A145G: human TNFα mutein A145G | 2,500 fold | 0.4 | 6,670 fold |
| A145H: human TNFα mutein A145H | 330 fold | 0.2 | 1,670 fold |
| A145K: human TNFα mutein A145K | < 100 fold | < 0.05 | 1,820 fold |
| A145S: human TNFα mutein A145S | 14,290 fold | 0.6 | 25,000 fold |
| A145T: human TNFα mutein A145T | 5,000 fold | 0.7 | 6,670 fold |
| A145V: human TNFα mutein A145V | 1,000 fold | 0.5 | 2,000 fold |
| A145Y: human TNFα mutein A145Y | 1,670 fold | 0.1 | 11,110 fold |
| D143E: human TNFα mutein D143E | < 100 fold | < 0.3 | 330 fold |
| D143F: human TNFα mutein D143F | < 100 fold | < 0.4 | 250 fold |
| D143V-A145S: human TNFα mutein D143V-A145S | < 100 fold | < 0.5 | 200 fold |
| D143V: human TNFα mutein D143V | < 100 fold | < 1 | < 100 fold |
| D143W: human TNFα mutein D143W | < 100 fold | < 1 | 100 fold |
| E146R: human TNFα mutein E146R | 6,670 fold | > 67 | < 100 fold |
| F144D: human TNFα mutein F144D | 5,000 fold | 15.2 | 330 fold |
| F144G: human TNFα mutein F144G | 2,500 fold | 1.2 | 2,000 fold |

| Substance | Dilution of E. coli Lysate for 50% Inhibition of 125I-TNFα Binding (ID50) TNFR-p55 (human TNFR-p55) | ID50 TNFR-p55 / ID50 TNFR-p75 (human TNFR-p55) | Dilution of E. coli Lysate for 50% Inhibition of 125I-TNFα Binding (ID50) TNFR-p75 (human TNFR-p75) |
| --- | --- | --- | --- |
| F144L: human TNFα mutein F144L | 5,000 fold | 1 | 5,000 fold |
| F144R: human TNFα mutein F144R | 2,500 fold | 7.6 | 330 fold |
| F144W: human TNFα mutein F144W | 400 fold | 2.2 | 180 fold |
| F144Y: human TNFα mutein F144Y | 2,860 fold | 1 | 2,860 fold |
| H73Q: human TNFα mutein H73Q | 10,000 fold | 1 | 10,000 fold |
| H73T: human TNFα mutein H73T | 2,000 fold | 1 | 2,000 fold |
| I97K: human TNFα mutein I97K | 143 fold | > 1.4 | < 100 fold |
| I97Y: human TNFα mutein I97Y | 2,500 fold | 7.6 | 330 fold |
| K65A: human TNFα mutein K65A | 20,000 fold | 0.6 | 33,330 fold |
| K65W: human TNFα mutein K65W | 500 fold | 0.2 | 3,330 fold |
| L29S-R32W: human TNFα mutein L29S-R32W | 5,000 fold | > 50 | < 100 fold |
| L29S-S86T: human TNFα mutein L29S-S86T | 200 fold | > 2 | < 100 fold |
| L75H: human TNFα mutein L75H | 1,670 fold | 0.7 | 2,500 fold |
| L75R: human TNFα mutein L75R | < 100 fold | 1 | < 100 fold |
| L75W: human TNFα mutein L75W | 220 fold | 0.7 | 330 fold |
| N19D: human TNFα mutein N19D | 5,000 fold | 1 | 5,000 fold |
| N30T: human TNFα mutein N30T | 2,860 fold | 1.1 | 2,500 fold |
| N34C: human TNFα mutein N34C | 250 fold | > 2.5 | < 100 fold |
